Reference: patent US20070049564A1 (Wyeth, priority 2005, published 2007)
≈ marks a conversion by molar mass, not a printed value. Like-named read-outs stand apart in the source and are kept apart here.

What was measured:
E. faecalis GC 2267 = assay: MIC, broth microdilution; conditions: Enterococcus faecalis
E. coli GC 2231 = assay: MIC, broth microdilution; conditions: Escherichia coli
Staph. = assay: Range of MIC for Staph. strains, including MRSA; conditions: Staphylococcus aureus
E. faecalis GC 4555 = assay: MIC, broth microdilution; conditions: Enterococcus faecalis
E. coli = assay: Range of MIC for E. coli strains; conditions: Escherichia coli
E. faecalis GC 2265 = assay: MIC, broth microdilution; conditions: Enterococcus faecalis
E. coli GC 2272 = assay: MIC, broth microdilution; conditions: Escherichia coli
E. faecalis GC 2242 = assay: MIC, broth microdilution; conditions: Enterococcus faecalis
S. pneumoniae* GC 4465 = assay: MIC, broth microdilution; conditions: Streptococcus pneumoniae
S. aureus GC 4536 = assay: MIC, broth microdilution; conditions: Staphylococcus aureus
Description: (§1) Antimicrobial susceptibility testing. The in vitro activities of the antibiotics are determined by the broth microdilution method as recommended by the National Committee for Clinical Laboratory Standards (NCCLS) (1). Mueller-Hinton II broth (MHBII)(BBL Cockeysville, Md.) is the medium employed in the testing procedures. Microtiter plates containing serial dilutions of each antimicrobial agent are inoculated with each organism to yield the appropriate density (10^5 CFU/ml) in a 100 μl final volume. The plates are incubated for 18-22 hours at 35° C. in ambient air.
(§2) Representative compounds were first incubated in mouse serum for an hour prior to the in vitro testing against a panel of selected gram-positive and gram-negative bacteria strains. All compounds were also pre-incubated in water for an hour prior to testing as control. Representative compounds of Formula I were incubated in human serum prior to MIC determination.

S. aureus GC 2216 = assay: MIC, broth microdilution; conditions: Staphylococcus aureus
S. pneumoniae+ GC 4465 = assay: MIC, broth microdilution; conditions: Streptococcus pneumoniae
S. aureus GC 1131 = assay: MIC, broth microdilution; conditions: Staphylococcus aureus
Description: as §1
Representative compounds were first incubated in mouse serum for an hour prior to the in vitro testing against a panel of selected gram-positive and gram-negative bacteria strains. All compounds were also pre-incubated in water for an hour prior to testing as control.

E. faecium GC 2243 = assay: MIC, broth microdilution; conditions: Enterococcus faecium
c. albicans GC 3066 = assay: MIC, broth microdilution
S. epidermidis GC 4935 = assay: MIC, broth microdilution; conditions: Staphylococcus epidermidis
E. coli GC 2236 = assay: MIC, broth microdilution; conditions: Escherichia coli
P. aeruginosa GC 2214 = assay: MIC, broth microdilution; conditions: Pseudomonas aeruginosa
E. coli GC 2232 = assay: MIC, broth microdilution; conditions: Escherichia coli
Description: as §1, §2

[1] = read-out: MINIMAL INHIBITORY CONCENTRATION MIC, Human Serum
[2] = read-out: MINIMAL INHIBITORY CONCENTRATION MIC, Mouse Serum
[3] = read-out: MINIMAL INHIBITORY CONCENTRATION MIC, Water

Structure (SMILES): CC(C)COC(=O)N(CC(=O)Nc1cc(N(C)C)c2c(c1O)C(=O)C1=C(O)[C@]3(O)C(=O)C(C(N)=O)=C(O)[C@@H](N(C)C)[C@@H]3C[C@@H]1C2)C(C)(C)C [Example 59, isobutyl 2-{[(5aR,6aS,7S,10aS)-9-(aminocarbonyl)-4,7-bis(dimethylamino)-1,8,10a,11-tetrahydroxy-10,12-dioxo-5,5a,6,6a,7,10,10a,12-octahydrotetracen-2-yl]amino}-2-oxoethyl(tert-butyl)carbamate]
- MIC (E. faecalis GC 2267; GC2267, read-out: MINIMAL INHIBITORY CONCENTRATION MIC, Human Serum): 4 µg/mL (≈ 5.83 µM)
- MIC (E. faecalis GC 2267; GC2267, read-out: MINIMAL INHIBITORY CONCENTRATION MIC, Mouse Serum): 4 µg/mL (≈ 5.83 µM)
- MIC (E. faecalis GC 2267; GC2267, read-out: MINIMAL INHIBITORY CONCENTRATION MIC, Water): 4 µg/mL (≈ 5.83 µM)
- MIC (E. coli GC 2231; GC2231, read-out: MINIMAL INHIBITORY CONCENTRATION MIC, Human Serum): > 64 µg/mL
- MIC (E. coli GC 2231; GC2231, read-out: MINIMAL INHIBITORY CONCENTRATION MIC, Mouse Serum): > 64 µg/mL
- MIC (E. coli GC 2231; GC2231, read-out: MINIMAL INHIBITORY CONCENTRATION MIC, Water): > 64 µg/mL
- MIC (Staph.; MRSA, read-out: Range of MIC, Staph (Mouse Serum)): 4 µg/mL (≈ 5.83 µM)
- MIC (Staph.; MRSA, read-out: Range of MIC, Staph (Water)): 4 to 8 µg/mL (≈ 5.83 to 11.7 µM)
- MIC (Staph.; read-out: Minimum inhibitory concentration (MIC), Staph (Human Serum)): 2 to 4 µg/mL (≈ 2.92 to 5.83 µM)
- MIC (Staph.; read-out: Minimum inhibitory concentration (MIC), Staph (Water)): 4 to 8 µg/mL (≈ 5.83 to 11.7 µM)
- MIC (E. faecalis GC 4555; GC4555, read-out: MINIMAL INHIBITORY CONCENTRATION MIC, Human Serum): 4 µg/mL (≈ 5.83 µM)
- MIC (E. faecalis GC 4555; GC4555, read-out: MINIMAL INHIBITORY CONCENTRATION MIC, Mouse Serum): 4 µg/mL (≈ 5.83 µM)
- MIC (E. faecalis GC 4555; GC4555, read-out: MINIMAL INHIBITORY CONCENTRATION MIC, Water): 4 µg/mL (≈ 5.83 µM)
- MIC (E. coli; read-out: Minimum inhibitory concentration (MIC), E. coli (Human Serum)): > 64 µg/mL
- MIC (E. coli; read-out: Minimum inhibitory concentration (MIC), E. coli (water)): > 64 µg/mL
- MIC (E. coli; read-out: Range of MIC, E. coli (Water)): > 64 µg/mL
- MIC (E. faecalis GC 2265; GC2265, read-out: MINIMAL INHIBITORY CONCENTRATION MIC, Human Serum): 4 µg/mL (≈ 5.83 µM)
- MIC (E. faecalis GC 2265; GC2265, read-out: MINIMAL INHIBITORY CONCENTRATION MIC, Mouse Serum): 4 µg/mL (≈ 5.83 µM)
- MIC (E. faecalis GC 2265; GC2265, read-out: MINIMAL INHIBITORY CONCENTRATION MIC, Water): 4 µg/mL (≈ 5.83 µM)
- MIC (E. coli GC 2272; GC2272, read-out: MINIMAL INHIBITORY CONCENTRATION MIC, Human Serum): > 64 µg/mL
- MIC (E. coli GC 2272; GC2272, read-out: MINIMAL INHIBITORY CONCENTRATION MIC, Mouse Serum): 64 µg/mL (≈ 93.3 µM)
- MIC (E. coli GC 2272; GC2272, read-out: MINIMAL INHIBITORY CONCENTRATION MIC, Water): > 64 µg/mL
- MIC (E. faecalis GC 2242; GC2242, read-out: MINIMAL INHIBITORY CONCENTRATION MIC, Human Serum): 4 µg/mL (≈ 5.83 µM)
- MIC (E. faecalis GC 2242; GC2242, read-out: MINIMAL INHIBITORY CONCENTRATION MIC, Mouse Serum): 2 µg/mL (≈ 2.92 µM)
- MIC (E. faecalis GC 2242; GC2242, read-out: MINIMAL INHIBITORY CONCENTRATION MIC, Water): 4 µg/mL (≈ 5.83 µM)
- MIC (S. pneumoniae* GC 4465; [1]): 4 µg/mL (≈ 5.83 µM)
- MIC (S. pneumoniae* GC 4465; [2]): 4 µg/mL (≈ 5.83 µM)
- MIC (S. pneumoniae* GC 4465; [3]): 4 µg/mL (≈ 5.83 µM)
- MIC (S. aureus GC 4536; GC4536, read-out: MINIMAL INHIBITORY CONCENTRATION MIC, Human Serum): 4 µg/mL (≈ 5.83 µM)
- MIC (S. aureus GC 4536; GC4536, read-out: MINIMAL INHIBITORY CONCENTRATION MIC, Mouse Serum): 4 µg/mL (≈ 5.83 µM)
- MIC (S. aureus GC 4536; GC4536, read-out: MINIMAL INHIBITORY CONCENTRATION MIC, Water): 4 µg/mL (≈ 5.83 µM)
- MIC (S. aureus GC 2216; GC2216, read-out: MINIMAL INHIBITORY CONCENTRATION MIC, Human Serum): 4 µg/mL (≈ 5.83 µM)
- MIC (S. aureus GC 2216; GC2216, read-out: MINIMAL INHIBITORY CONCENTRATION MIC, Mouse Serum): 4 µg/mL (≈ 5.83 µM)
- MIC (S. aureus GC 2216; GC2216, read-out: MINIMAL INHIBITORY CONCENTRATION MIC, Water): 4 µg/mL (≈ 5.83 µM)
- MIC (S. pneumoniae+ GC 4465; [1]): 8 µg/mL (≈ 11.7 µM)
- MIC (S. pneumoniae+ GC 4465; [2]): 4 µg/mL (≈ 5.83 µM)
- MIC (S. pneumoniae+ GC 4465; [3]): 8 µg/mL (≈ 11.7 µM)
- MIC (S. aureus GC 1131; GC1131, read-out: MINIMAL INHIBITORY CONCENTRATION MIC, Human Serum): 4 µg/mL (≈ 5.83 µM)
- MIC (S. aureus GC 1131; GC1131, read-out: MINIMAL INHIBITORY CONCENTRATION MIC, Mouse Serum): 4 µg/mL (≈ 5.83 µM)
- MIC (S. aureus GC 1131; GC1131, read-out: MINIMAL INHIBITORY CONCENTRATION MIC, Water): 4 µg/mL (≈ 5.83 µM)
- MIC (E. faecium GC 2243; GC2243, read-out: MINIMAL INHIBITORY CONCENTRATION MIC, Human Serum): 8 µg/mL (≈ 11.7 µM)
- MIC (E. faecium GC 2243; GC2243, read-out: MINIMAL INHIBITORY CONCENTRATION MIC, Mouse Serum): 4 µg/mL (≈ 5.83 µM)
- MIC (E. faecium GC 2243; GC2243, read-out: MINIMAL INHIBITORY CONCENTRATION MIC, Water): 4 µg/mL (≈ 5.83 µM)
- MIC (c. albicans GC 3066; Candida albicans, GC3066, read-out: MINIMAL INHIBITORY CONCENTRATION MIC): > 64 µg/mL
- MINIMAL INHIBITORY CONCENTRATION MIC (c. albicans GC 3066; Human Serum): >64 UG/ML
- MINIMAL INHIBITORY CONCENTRATION MIC (c. albicans GC 3066; Mouse Serum): >64 UG/ML
- MIC (S. epidermidis GC 4935; GC4935, read-out: MINIMAL INHIBITORY CONCENTRATION MIC, Human Serum): 4 µg/mL (≈ 5.83 µM)
- MIC (S. epidermidis GC 4935; GC4935, read-out: MINIMAL INHIBITORY CONCENTRATION MIC, Mouse Serum): 4 µg/mL (≈ 5.83 µM)
- MIC (S. epidermidis GC 4935; GC4935, read-out: MINIMAL INHIBITORY CONCENTRATION MIC, Water): 4 µg/mL (≈ 5.83 µM)
- MIC (E. coli GC 2236; GC2236, read-out: MINIMAL INHIBITORY CONCENTRATION MIC, Human Serum): > 64 µg/mL
- MIC (E. coli GC 2236; GC2236, read-out: MINIMAL INHIBITORY CONCENTRATION MIC, Mouse Serum): > 64 µg/mL
- MIC (E. coli GC 2236; GC2236, read-out: MINIMAL INHIBITORY CONCENTRATION MIC, Water): > 64 µg/mL
- MIC (P. aeruginosa GC 2214; GC2214, read-out: MINIMAL INHIBITORY CONCENTRATION MIC, Human Serum): > 64 µg/mL
- MIC (P. aeruginosa GC 2214; GC2214, read-out: MINIMAL INHIBITORY CONCENTRATION MIC, Mouse Serum): > 64 µg/mL
- MIC (P. aeruginosa GC 2214; GC2214, read-out: MINIMAL INHIBITORY CONCENTRATION MIC, Water): > 64 µg/mL
- MIC (E. coli GC 2232; GC2232, read-out: MINIMAL INHIBITORY CONCENTRATION MIC, Human Serum): > 64 µg/mL
- MIC (E. coli GC 2232; GC2232, read-out: MINIMAL INHIBITORY CONCENTRATION MIC, Mouse Serum): > 64 µg/mL
- MIC (E. coli GC 2232; GC2232, read-out: MINIMAL INHIBITORY CONCENTRATION MIC, Water): > 64 µg/mL
